Measured values taken from PMC6906117, “Desolvation of the substrate-binding protein TauA dictates ligand specificity for the alkanesulfonate ABC importer TauABC” (Biochemical Journal, 2019).
Entries after “also recorded” stand apart in the source; their conditions may differ. Where two headings read alike, the source gives them in different places. Marks after values point to notes of the source that are not given here.

Key:
TauA = target: T1, TauA (Escherichia coli, UniProt Q47537); experiment: Isothermal titration calorimetry, ligand binding to wild-type TauA; set-up: species or system E. coli
T1 construct: His tag with TEV site (pEHisTEV vector) (cleaved yes); made in house; host or cells: E. coli BL21 (DE3)
Description: The gene encoding for the mature TauA from E. coli (accession number: K12-Q47537) was cloned into the pEHisTEV vector. BL21 (DE3) cells transformed with pEHisTEVtauA plasmid were grown at 310 K. Isopropyl β-D-1-thiogalactopyranoside was added to a final concentration of 0.5 mM when the culture reached an OD600 of 0.6, and the growth continued at 298 K for 18 h. Cells were harvested by centrifugation (6000×g) and resuspended in PBS supplemented with 20 mM imidazole and 3 mM MgCl2. Cells were lysed by sonication (10 cycles; 10 s per cycle with 10 s interval on ice) followed by centrifugation at 30 000 g for 1 h. The supernatant was subjected to Ni-NTA affinity chromatography followed by overnight dialysis with TEV protease and size exclusion chromatography using a Superdex S-200 column equilibrated with 20 mM Tris (pH 7.5) and 150 mM NaCl. […] SDS–PAGE indicated high purity.
(§1) Binding of ligands to TauA and mutants was measured at 298 K using ITC (MicroCal iTC200 microcalorimeter, Malvern Instruments). The protein buffer was in 20 mM Tris (pH 7.5) and 150 mM NaCl (ITC buffer). Protein and ligands were diluted to desired concentrations using ITC buffer. The pH of protein and ligand was adjusted at 277 K. An amount of 200 µl of protein and 60 µl of ligand was added into the sample cell and injection syringe, respectively. Seventeen 2.4 µl injections were performed with a pre-injection of 0.5 µl, a 180 s interval and an injection speed of 0.5 µl/s. Control experiments were performed where ligand was injected into ITC buffer. The heat of interaction was obtained by subtracting control measurements (heat of dilution) from the experimental measurements. The baseline was generated and the concentration-normalized binding isotherm was integrated using the MicroCal Origin software (version 7). The first injection peak was deleted from the isotherm. The isotherm was fitted to a single-site binding model. Values of binding constant (Ka, M^−1), enthalpy change (ΔH, J/mol) and binding stoichiometry (n) were allowed to vary (unless mentioned specifically) during the fitting procedure. The dissociation constant (Kd, M) and entropy change (ΔS, J/mol/K) were derived from Ka, ΔH and n accordingly. The Kd value is derived from the absolute value of Ka (Kd = 1/Ka).

TauA Asp205Ala = TauA Asp205Ala (Escherichia coli, UniProt Q47537, D205A); experiment: biochemical; format: binding, E. coli; details: Asp205Ala mutant
Description: (§2) Alanine-substituted TauA mutants (Gln30Ala, Glu106Ala, Thr132Ala and Asp205Ala) were generated by PCR using the QuikChange Lightning Site-Directed Mutagenesis Kit (Agilent Technologies). Mutations were confirmed by DNA sequencing. Mutants were expressed and purified as for the wild-type TauA.
as §1

TauA Gln30Ala = TauA Gln30Ala (Escherichia coli, UniProt Q47537, Q30A); experiment: biochemical; format: binding, E. coli; details: ITC, Gln30Ala mutant
Description: as §2, §1

TauA Thr132Ala = TauA Thr132Ala (Escherichia coli, UniProt Q47537, T132A); experiment: biochemical; format: binding, E. coli; details: Thr132Ala mutant
Description: as §2, §1

TauA Glu106Ala = TauA Glu106Ala (Escherichia coli, UniProt Q47537, E106A); format: binding, E. coli; details: ITC, Glu106Ala mutant
Description: as §2
as §1, with “Values of binding constant (Ka, M^−1), enthalpy change (ΔH, J/mol) and binding stoichiometry (n) were allowed to vary (unless mentioned specifically) during the fitting procedure. The dissociation constant (Kd, M) and entropy change (ΔS, J/mol/K) were derived from Ka, ΔH and n accordingly. The Kd value is derived from the absolute value of Ka (Kd = 1/Ka).” left out

[1] = stoichiometry fixed to 0.8 during data fitting
[2] = ITC, 298 K, 20 mM Tris pH 7.5, 150 mM NaCl, read-out: Kd
[3] = ITC, read-out: Kd (apparent affinity)

TauA Thr132Ala, sequence (Q47537 23-320 T132A): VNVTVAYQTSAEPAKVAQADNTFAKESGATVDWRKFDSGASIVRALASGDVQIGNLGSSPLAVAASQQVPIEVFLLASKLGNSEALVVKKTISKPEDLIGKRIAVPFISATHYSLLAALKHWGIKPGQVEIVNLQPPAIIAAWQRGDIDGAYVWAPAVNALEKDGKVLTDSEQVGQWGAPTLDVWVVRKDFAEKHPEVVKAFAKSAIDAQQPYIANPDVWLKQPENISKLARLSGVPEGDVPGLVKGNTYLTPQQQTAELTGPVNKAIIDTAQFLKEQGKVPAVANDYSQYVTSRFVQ
TauA Asp205Ala, sequence (Q47537 23-320 D205A): as the sequence (Q47537 23-320 T132A) above, with A110T, D183A counted along it
T1 sequence (Q47537 23-320): as the sequence (Q47537 23-320 T132A) above, with A110T counted along it
TauA Gln30Ala, sequence (Q47537 23-320 Q30A): as the sequence (Q47537 23-320 T132A) above, with Q8A, A110T counted along it
TauA Glu106Ala, sequence (Q47537 23-320 E106A): as the sequence (Q47537 23-320 T132A) above, with E84A, A110T counted along it

In the case of `NCCP(=O)(O)O` [2-AEP, 2-Aminoethylphosphonic acid], the “heat of binding to TauA (exothermic/endothermic)” value (“heat … (exothermic/endothermic)” for short) (TauA; ITC) is reported as “endothermic”, the ΔH (TauA; ITC, 298 K) is reported as 0.016 (±0.03%) kJ/mol and the ΔS (TauA; ITC, 298 K) is reported as 2.33 J/mol/K. For the same molecule, the Kd (TauA; Kd (apparent affinity), ITC) was 649 µM, the Kd (TauA; Kd, ITC, 298 K, 20 mM Tris pH 7.5, 150 mM NaCl) was 649 µM and the Stoichiometry (TauA; [1]) was 0.8 ^*.
For `NC(=O)CNCCS(=O)(=O)O` [ACES, N-(2-acetamido)-2-aminoethanesulfonic acid], the “heat … (exothermic/endothermic)” value (TauA; ITC) was “exothermic”, the ΔH (TauA; ITC, 298 K) was −1.44 (±3.3%) kJ/mol and the ΔS (TauA; ITC, 298 K) was 1.87 J/mol/K. The Kd (TauA; [2]) was 7.46 µM, the Stoichiometry (TauA; ITC, fitted n) was 0.79(±2.4%) and the Kd (TauA; [3]) was 7.4 µM.
With `O=S(=O)(O)CCN1CCOCC1` [MES, 2-(N-morpholino)ethanesulfonate] the “heat … (exothermic/endothermic)” value (TauA; ITC) was “endothermic”, the ΔH (TauA; ITC, 298 K) was 4.74 (±0.8%) kJ/mol and the ΔS (TauA; ITC, 298 K) was 2.45 J/mol/K. The Kd (TauA; [2]) was 2.85 µM, the Stoichiometry (TauA; ITC, fitted n) was 0.868(±0.5%) and the Kd (TauA; [3]) was 2.8 µM.
In the case of `NCCS(=O)(=O)O` [taurine, 2-aminoethanesulfonic acid], the “heat … (exothermic/endothermic)” value (TauA; ITC) is reported as “exothermic”, the ΔH (TauA; ITC, 298 K) is reported as −61.04 (±0.08%) kJ/mol and the Kd (TauA; [2]) is reported as 0.0016 µM. The Stoichiometry (TauA; ITC, fitted n) was 0.768(±0.38%), the Stoichiometry (TauA Asp205Ala; [1]) was 0.8 ^* and the ΔH (TauA Asp205Ala; ITC) was −34.83 (±2%) kJ/mol. The ΔS (TauA Asp205Ala; ITC) was −2.34 J/mol/K, the Kd (TauA Asp205Ala; Kd, ITC, 298 K) was 22.9 µM and the Kd (TauA Asp205Ala; affinity, ITC) was 22.9 µM. For the same molecule, the ΔH (TauA Gln30Ala) was −17.87 (±8%) kJ/mol, the ΔS (TauA Gln30Ala) was 3.72 J/mol/K and the Stoichiometry (TauA Gln30Ala; fitted n) was 0.83(±6%). For the same molecule, the Kd (TauA Gln30Ala; Kd, 298 K) was 3.48 µM, the Kd (TauA Gln30Ala; affinity) was 3.5 µM and the ΔH (TauA Thr132Ala; ITC) was −28.76 (±8%) kJ/mol. The ΔS (TauA Thr132Ala; ITC) was −0.54 J/mol/K, the Kd (TauA Thr132Ala; Kd, ITC, 298 K) was 20.6 µM and the Stoichiometry (TauA Thr132Ala; [1]) was 0.8 ^*. The Kd (TauA Thr132Ala; affinity, ITC) was 20.6 µM and the taurine binding affinity (TauA Glu106Ala) was “detrimental to taurine binding; also recorded: No binding affinity could be measured”.
